{
  "source": "paper PMC10740432",
  "about": "“The GDP-Mannose Dehydrogenase of Pseudomonas aeruginosa: An Old and New Target to Fight against Antibiotics Resistance of Mucoid Strains” (Antibiotics, 2023)",
  "key": {"[1]": {"biological_target": "T1, GDP-mannose dehydrogenase (GMD) (Pseudomonas aeruginosa, UniProt P11759)", "T1 construct": "gene algD; native full-length protein purified from mucoid P. aeruginosa; 48 kDa polypeptide; 59 kDa apparent on gel filtration, monomer/active dimer; no tag", "T1 sequence (P11759 whole entry)": "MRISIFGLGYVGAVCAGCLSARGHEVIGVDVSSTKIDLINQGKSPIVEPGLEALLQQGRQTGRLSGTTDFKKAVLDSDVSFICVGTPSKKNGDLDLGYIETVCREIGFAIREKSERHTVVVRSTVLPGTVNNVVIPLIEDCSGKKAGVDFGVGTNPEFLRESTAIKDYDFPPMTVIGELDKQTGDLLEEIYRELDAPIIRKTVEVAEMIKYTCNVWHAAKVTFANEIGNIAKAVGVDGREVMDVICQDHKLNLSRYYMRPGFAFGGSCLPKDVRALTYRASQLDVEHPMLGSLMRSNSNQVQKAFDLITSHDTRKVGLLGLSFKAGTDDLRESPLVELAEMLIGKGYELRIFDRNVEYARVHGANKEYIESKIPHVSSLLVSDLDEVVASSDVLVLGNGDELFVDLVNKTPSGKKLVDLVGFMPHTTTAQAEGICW", "assay": "inhibition of NADH formation at […] nm", "format": "biochemical", "details": "read-out: Percentage of GMD Inhibition at the Final Concentration of"}, "[2]": {"biological_target": "T1, GDP-mannose dehydrogenase (GMD)", "assay": "NADH formation at […] nm, Dixon plot", "format": "biochemical"}, "[3]": {"test_system": "Nc1nc2c(ncn2[C@@H]2O[C@H](COP(=O)(O)OP(=O)(O)O[C@H]3O[C@H](CO)[C@@H](O)[C@H](O)[C@@H]3O)[C@@H](O)[C@H]2O)c(=O)[nH]1", "assay": "purified protein", "details": "strong-affinity site of two (negative cooperativity), strains NK 125502 and A22 alg^+, 1 mM NAD+, 10 mM MgSO4, 0.2 M glycyl-glycine pH 8.5, 37 °C"}, "[4]": {"test_system": "NC(=O)c1ccc[n+]([C@@H]2O[C@H](COP(=O)(O)OP(=O)(O)OC[C@H]3O[C@@H](n4cnc5c(N)ncnc54)[C@H](O)[C@@H]3O)[C@@H](O)[C@H]2O)c1", "assay": "purified protein", "details": "co-substrate GDP-mannose, 10 mM MgSO4, 0.2 M glycyl-glycine pH 8.5, 37 °C, strain not stated, varied: cofactor"}},
  "data": [
    {"compound": "NC[C@H]1O[C@@H](n2cnc3c(=O)[nH]c(N)nc32)[C@H](O)[C@@H]1O", "note": "[5′AG, 5′-amino-5′-deoxy-guanosine]", "values": [
      {"measurement": "inhibition at 500 µM", "setting": "[1]", "value": "64 ± 3", "unit": "%"}
    ]},
    {"compound": "Nc1nc2c(ncn2[C@@H]2O[C@H](CNCCCO)[C@@H](O)[C@H]2O)c(=O)[nH]1", "note": "[5′APG, 5′-(3-hydroxypropyl)-amino-5′-guanosine]", "values": [
      {"measurement": "inhibition at 500 µM", "setting": "[1]", "value": "72 ± 2", "unit": "%"}
    ]},
    {"compound": "C#CC(OC(C)=O)[C@H]1O[C@H](OC(=O)NS(=O)(=O)OC[C@H]2O[C@@H](n3cnc4c(=O)[nH]c(NC(C)=O)nc43)[C@@H]3OC(C)(C)O[C@@H]32)[C@@H](OC(C)=O)[C@@H](OC(C)=O)[C@@H]1OC(C)=O", "note": "(stereo partly drawn) [AM5′ASG, alcynyl-6-tetra-O-acetyl-mannose-carbonyl-amino-sulfonyl-guanosine]", "values": [
      {"measurement": "inhibition at 500 µM", "setting": "[1]", "value": "90 ± 3", "unit": "%"}
    ]},
    {"compound": "Nc1nc2c(ncn2[C@@H]2O[C@H](CO)[C@@H](O)[C@H]2O)c(=O)[nH]1", "note": "[guanosine]", "values": [
      {"measurement": "Ki", "setting": "[2]", "value": "~40", "unit": "µM"}
    ]},
    {"compound": "GDP-mannose dehydrogenase (GMD) (Pseudomonas aeruginosa PAO1)", "values": [
      {"measurement": "Km", "setting": "[3]", "value": 13, "unit": "µM"},
      {"measurement": "Km", "setting": "[4]", "value": 360, "unit": "µM"}
    ]}
  ]
}
